Laboratory results reported in US20250025523A1, “COMPOSITION FOR PREVENTING OR TREATING MUSCLE DISEASE COMPRISING SARGASSUM SERRATIFOLIUM EXTRACT” (PUKYONG NATIONAL UNIVERSITY INDUSTRY- UNIVERSITY …, priority 2021, published 2025).

Assay: Body weight change in dexamethasone muscle atrophy mouse model
Format: in vivo, C57BL/6 mice
Settings: DEX group: dexamethasone 10 mg/kg/day i.p. 4 weeks, olive oil orally; at sacrifice
Method: Specifically, three-week-old male C57BL/6 mice were provided with free access to water and food and were acclimated under conditions of 23±2° C., relative humidity of 50±5%, and a 12-hour light/dark cycle. […] In the untreated group, an equivalent volume of saline was administered intraperitoneally. Body weight and food intake were evaluated daily. The experiment was conducted with the approval of the Pukyong National University Animal Care and Use Committee, in accordance with Pukyong National University's animal experiment ethics regulations.

C[C@@H]1C[C@H]2[C@@H]3CCC4=CC(=O)C=C[C@]4(C)[C@@]3(F)[C@@H](O)C[C@]2(C)[C@@]1(O)C(=O)CO [DEX, dexamethasone]
Body weight (g) Sacrifice [B]: 27.9 ± 3.25 g
